From EP4817425A1, “COMPOSITION AND SOLID MOLDED BODY” (Nagase & Co., Ltd., priority 2023, dated 2025)

Assay: Screening test of saccharides: thickness of tableted product tableted to hardness 5 N
Type: physicochemical
Settings: protein powder and saccharide weight ratio 1:1, tableted to hardness 5 N; compared among eight saccharides (Fig. 1)
Source text: The tableting characteristics of various saccharides were confirmed, and saccharides suitable for the production of a solid molded body were screened. First, 2.0 g each (within an error of 0.003 g) of a protein powder (WPC392 manufactured by Fonterra Japan Limited) and any one of the saccharides shown below were weighed and mixed to prepare a composition containing 50 parts by weight each of the protein and the saccharide (weight ratio 1:1). Each of the obtained compositions was tableted with the tableting force appropriately adjusted so that the composition would have a hardness of 5 N after being tableted. As a result, a tableted product having a hardness of 5 N was obtained. The thickness of the obtained tableted product was measured. Note that in the Examples, the thicknesses of a tableted product and a solid molded body are values each measured using a caliper (ABS digimatic caliper CD-AX, manufactured by Mitutoyo Corporation), and the hardnesses of a tableted product and a solid molded body are values each measured using a load cell type tablet hardness tester (PC-30 manufactured by OKADA SEIKO CO., LTD.).

OC[C@H]1O[C@H](O[C@H]2[C@H](O)[C@@H](O)C(O)O[C@@H]2CO)[C@H](O)[C@@H](O)[C@@H]1O (mixture of isomers) [maltose, Maltose]
thickness of the tableted product: largest thickness
